From patent publication US20240245641A1, “PHARMACEUTICAL COMPOSITION FOR PREVENTING OR TREATING DIABETES MELLITUS IN ANIMAL OF FAMILY CANIDAE, COMPRISING ENAVOGLIFLOZIN” (DAEWOONG PHARMACEUTICAL CO., LTD., priority 2021, published 2024)

Legend:
[1] = test system: dogs with insulin-dependent diabetes mellitus (type 1 diabetes mellitus); assay: Evaluation of side effects after administration of enavogliflozin with insulin (disease activity index, cystitis, hypoglycemia); assay type: in vivo, dog
Procedure: (§1) This study evaluated the safety and efficacy of enavogliflozin along with insulin therapy in dogs with insulin-dependent diabetes mellitus (type 1 diabetes mellitus) as a prospective, open-label, non-randomized, multicenter, and proof-of-concept study. The efficacy and safety of enavogliflozin were evaluated at predetermined times during the treatment period.
(§2) Diabetic dogs meeting the following criteria were allowed to participate in a clinical trial: Small dogs under 15 years of age (less than 10 kg), medium-sized dogs under 13 years of age (11 to 22 kg), stable basal dose insulin therapy at least 1 month prior to the screening visit, post-insulin nadir (Nadir) blood glucose minimum of 200 mg/dl, and blood ketone levels less than 0.6 mmol/L.
(§3) However, diabetic dogs meeting the following criteria were excluded: Dogs with chronic kidney disease (CKD IRIS stage >2), hypotension evaluation, administration of diuretics or related drugs, confirmed pregnancy, and taking drugs affecting the test within 14 days prior to test start.
(§4) The study was performed for 8 weeks, and dogs participating in the clinical trial were divided into two groups, a TOD test group and a SID test group, according to the dose of enavogliflozin administered. Enavogliflozin was administered to the TOD test group and the SID test group at a dose of 0.025 mg/kg once every 3 days and once a day, respectively. For proper evaluation, the dogs were administered the drug with breakfast, and after dosing was completed, dogs underwent physical examinations such as blood pressure, blood tests and urine tests. Thereafter, researchers adjusted insulin doses to meet target blood glucose levels during monitoring (Nadir glucose levels, 80 to 150 mg/dl).
(§5) A primary evaluation variable was whether blood fructosamine levels decreased without developing severe hypoglycemia or diabetic ketoacidosis (DKA) after the animals were randomly divided into groups. […] The diagnosis of diabetic ketoacidosis was evaluated based on the presence of anion-gap metabolic acidosis associated with excessive ketogenesis without other causes. […]

[2] = test system: dogs with insulin-dependent diabetes mellitus (type 1 diabetes mellitus); assay: Evaluation of body weight and blood pressure after administration of enavogliflozin; assay type: in vivo, dog
Procedure: as §1, §2, §3, §4, §5

[3] = test system: dogs with insulin-dependent diabetes mellitus (type 1 diabetes mellitus); assay: Evaluation of renal function (blood and urine tests) after administration of enavogliflozin; assay type: in vivo, dog; details: after 8 weeks treatment, mean ± S.D
Procedure: as §1, §2, §3, §4
(§6) A primary evaluation variable was whether blood fructosamine levels decreased without developing severe hypoglycemia or diabetic ketoacidosis (DKA) after the animals were randomly divided into groups. A secondary evaluation variable was a change in fasting blood glucose levels, body weight and a mean bolus dose of insulin from baseline to 8 weeks. […] The diagnosis of diabetic ketoacidosis was evaluated based on the presence of anion-gap metabolic acidosis associated with excessive ketogenesis without other causes. Safety information including data on clinical and laboratory values and side effects was collected at each study visit.
(§7) Differences before and after drug administration within the groups were compared using the Student paired t-test or the Wilcoxon rank test. Furthermore, differences between groups after drug administration through a mixed ANOVA test were confirmed. Statistical analysis was performed with the R programming language (https://cran.r-project.org/) and GraphPad Prism version 7 (GraphPad Software, Inc., La Jolla, California). A p-value less than 0.05 was considered statistically significant.
Changes in renal function before and after administration of enavogliflozin were confirmed through blood and urine tests. Blood test items include blood urea nitrogen (BUN), creatinine, symmetric di-methyl-arginine (SDMA), cystatin-C, beta-2-microglobulin (B2M) and N-acetyl-β-d-glucosaminidase (NAG). Urinalysis items include urine specific gravity (USG) and urine protein to creatinine (UPC) ratio.

[4] = test system: dogs with insulin-dependent diabetes mellitus (type 1 diabetes mellitus); assay: Evaluation of metabolic acidosis after administration of enavogliflozin; assay type: in vivo, dog; details: for Anion Gap / HCO3 / Ketone (blood) / LDH / pH (venous blood gas): after 8 weeks treatment, mean ± S.D
Procedure: as §1, §2, §3, §4, §6, §7
In addition, when lactate dehydrogenase (LDH) was measured, there was no significant change in both test groups compared to before administration. Blood pH, bicarbonate (HCO3), and the anion gap were confirmed by a venous blood gas test, and there was no significant difference before and after administration (Table 4). […] In Table 4, all values are expressed as mean±S.D, and p-values less than 0.05 were considered statistically significant.

[5] = test system: dogs with insulin-dependent diabetes mellitus (type 1 diabetes mellitus); assay: Evaluation of lipid metabolism after administration of enavogliflozin; assay type: in vivo, dog; details: after 8 weeks treatment, mean ± S.D
Procedure: as §1, §2, §3, §4, §6, §7
Blood cholesterol was measured to confirm the effect of enavogliflozin on lipid metabolism. Changes in triglycerides and total cholesterol (T-Chol) were not statistically significant. […] In Table 5, all values are expressed as mean±S.D, and p-values less than 0.05 were considered statistically significant.

[6] = test system: dogs with insulin-dependent diabetes mellitus (type 1 diabetes mellitus); assay: Evaluation of regulation of blood glucose after 8 weeks of enavogliflozin with insulin; assay type: in vivo, dog
Procedure: as §1, §2, §3, §4, §6, §7
The regulation of blood glucose before and after administration was confirmed through blood tests (fructosamine and fasting glucose) and the daily insulin dose. […] However, fructosamine concentration was improved (p=0.041). […] In addition, as a result of comparing the difference between the test groups at 8 weeks, there was no significant difference in fasting blood glucose, fructosamine, and insulin reduction rate. However, there was a tendency towards a decrease in the SID test group taking enavogliflozin once a day compared to the TOD test group taking enavogliflozin once every 3 days (FIGS. 2A to 2C).

[7] = test system: dogs with insulin-dependent diabetes mellitus (type 1 diabetes mellitus); assay: Long-term effectiveness, enavogliflozin with insulin for up to 6 months; assay type: in vivo, dog
Procedure: In addition, long-term effectiveness was confirmed by additionally administering enavogliflozin to the companion dogs participating in the clinical trial at the same usage and dosage (SID or TOD) for up to 6 months.
as §7
Furthermore, as a result of confirming the long-term effectiveness by administering enavogliflozin at the same usage and dose for up to 6 months, fasting blood glucose, fructosamine and insulin reduction rate were improved in all SID/TOD test groups.

human SGLT2 = target: T1, human SGLT2 (Homo sapiens, UniProt P31639); details: disclosed in U.S. Patent Publication No. 2015/0152075; cited from earlier work
T1 sequence (P31639 1-672): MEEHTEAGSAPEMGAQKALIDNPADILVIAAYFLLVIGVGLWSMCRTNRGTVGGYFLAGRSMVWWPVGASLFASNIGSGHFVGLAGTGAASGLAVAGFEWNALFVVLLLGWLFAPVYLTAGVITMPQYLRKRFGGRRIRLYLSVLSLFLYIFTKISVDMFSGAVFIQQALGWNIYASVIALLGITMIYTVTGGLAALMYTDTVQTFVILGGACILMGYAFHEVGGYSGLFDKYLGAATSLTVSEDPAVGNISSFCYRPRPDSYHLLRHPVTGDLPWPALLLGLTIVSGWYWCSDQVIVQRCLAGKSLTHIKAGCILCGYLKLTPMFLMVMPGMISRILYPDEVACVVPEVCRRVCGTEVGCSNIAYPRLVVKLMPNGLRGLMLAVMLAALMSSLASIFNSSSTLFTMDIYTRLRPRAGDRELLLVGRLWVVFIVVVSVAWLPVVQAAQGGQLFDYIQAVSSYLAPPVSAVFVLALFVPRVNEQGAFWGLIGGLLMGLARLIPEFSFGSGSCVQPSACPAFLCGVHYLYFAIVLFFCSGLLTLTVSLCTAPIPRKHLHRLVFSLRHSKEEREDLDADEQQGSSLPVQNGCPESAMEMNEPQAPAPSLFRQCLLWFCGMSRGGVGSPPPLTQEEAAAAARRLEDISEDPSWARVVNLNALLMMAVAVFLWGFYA

[8] = both groups (TOD and SID), 0.025 mg/kg with insulin, 8 weeks
[9] = SID test group, 0.025 mg/kg once a day with insulin
[10] = TOD test group, 0.025 mg/kg once every 3 days with insulin
[11] = TOD test group, 0.025 mg/kg once every 3 days with insulin, 8 weeks
[12] = SID administration group, 0.025 mg/kg once a day with insulin, up to 6 months (p<0.0234)

OC[C@H]1O[C@@H](c2cc(Cc3ccc(C4CC4)cc3)c(Cl)c3c2CCO3)[C@H](O)[C@@H](O)[C@@H]1O [enavogliflozin]
new cases of bacterial cystitis ([1]; any test group (TOD, SID), 8 weeks): no new cases | disease activity index (appetite, activity, stool status) ([1]; dog, in vivo): no difference between before and after administration | severe hypoglycemia leading to loss of consciousness or seizures ([1]; dog, in vivo): no severe hypoglycemia | Blood pressure (systolic), change after administration ([2]; SID test group, 0.025 mg/kg once a day with insulin, 8 weeks (p=0.033)): significantly reduced | BCS (body condition score), change after administration [2, 8]: no difference | Body weight, change after administration [2, 8]: tended to decrease | BUN ([3]; SID test group (n = 8), 0.025 mg/kg once a day with insulin): 21.9 ± 6.8 mg/dL | Creatinine [3, 9]: 0.6 ± 0.1 mg/dL | Cystatin-C [3, 9]: 0.5 ± 0.1 mg/L | NAG [3, 9]: 9.0±4.3 U/g | SDMA [3, 9]: 7.8 ± 1.4 µg/dL | UPC (urine protein to creatinine ratio) [3, 9]: 1.1±1.6 | USG (urine specific gravity) [3, 9]: 1.043±0.008 | BUN ([3]; TOD test group (n = 10), 0.025 mg/kg once every 3 days with insulin): 22.5 ± 11.7 mg/dL | Creatinine [3, 10]: 0.9 ± 0.2 mg/dL | Cystatin-C [3, 10]: 0.5 ± 0.2 mg/L | NAG [3, 10]: 7.6±5.8 U/g | SDMA [3, 10]: 9.2 ± 5.5 µg/dL | UPC (urine protein to creatinine ratio) [3, 10]: 1.1±1.8 | USG (urine specific gravity) [3, 10]: 1.034±0.011 | Anion Gap [4, 9]: 13.2 ± 4.5 mmol/L | HCO3 [4, 9]: 25.0 ± 2.5 mmol/L | Ketone (blood) [4, 9]: 0.4 ± 0.1 mmol/L | LDH [4, 9]: 230.8 ± 79.6 U/L | pH (venous blood gas) [4, 9]: 7.4 ± 0.1 | Anion Gap [4, 10]: 12.0 ± 4.2 mmol/L | HCO3 [4, 10]: 24.3 ± 3.6 mmol/L | Ketone (blood) [4, 10]: 0.2 ± 0.1 mmol/L | LDH [4, 10]: 444.5 ± 584.7 U/L | pH (venous blood gas) [4, 10]: 7.4 ± 0.1 | diabetic ketoacidosis ([4]; both test groups, eight weeks after administration): did not occur | Lipase [5, 9]: 226.8 ± 215.0 U/L | T-Chol (total cholesterol) [5, 9]: 261.3 ± 150.5 mg/dL | Triglyceride [5, 9]: 515.2 ± 977.9 mg/dL | Lipase [5, 10]: 197.3 ± 230.1 U/L | T-Chol (total cholesterol) [5, 10]: 327.6 ± 114.7 mg/dL | Triglyceride [5, 10]: 384.9 ± 425.3 mg/dL | daily insulin dose ([6]; SID test group, 0.025 mg/kg once a day with insulin, after 8 weeks (before: 2.0±0.8)): 1.5±0.5 units/kg/day | fasting blood glucose ([6]; SID test group, 0.025 mg/kg once a day with insulin, after 8 weeks (before: 330.8±118.0; p=0.0078)): 215.5 ± 126.2 mg/dL | fructosamine levels ([6]; SID test group, 0.025 mg/kg once a day with insulin, after 8 weeks (before: 475.3±107.6; p=0.034)): 393.1 ± 122.9 µmol/L | daily insulin dose, change before/after administration [6, 11]: decreased, but the difference was not statistically significant | fasting blood glucose, change before/after administration [6, 11]: decreased, but the difference was not statistically significant | fructosamine concentration, change before/after administration ([6]; TOD test group, 0.025 mg/kg once every 3 days with insulin, 8 weeks (p=0.041)): improved | fasting blood glucose, 6 months [7, 12]: statistically significant reduction | insulin reduction rate, 6 months [7, 12]: statistically significant reduction | fructosamine, 6 months ([7]; TOD test group, 0.025 mg/kg once every 3 days with insulin, up to 6 months (p<0.0313)): statistically significant reduction | fasting blood glucose, fructosamine and insulin reduction rate, 6 months ([7]; all SID/TOD test groups, 0.025 mg/kg with insulin, up to 6 months): improved | inhibitory effect on human SGLT2 activity (human SGLT2): excellent inhibitory effect
